Source: ChEMBL document CHEMBL1149733, “Antitumor agents, 130, Novel 4 beta-arylamino derivatives of 3',4'-didemethoxy-3',4'-dioxo-4-deoxypodophyllotoxin as potent inhibitors of human DNA topoisomerase II” (1992)

What was measured:
KB = experiment: Cytotoxicity against human KB cells assessed as reduction in cell number after 3 days; format: functional; details: 72 h, read-out: ID50 (the source's name)
[1] = molecular target: DNA topoisomerase 2-alpha (Homo sapiens) (UniProt P11388); experiment: Inhibition of strand rejoining activity of human DNA topoisomerase 2 assessed as protein-DNA complex formation at 10 uM by cell-based assay; set-up: scale not given: the % may be the effect or the level left
[2] = molecular target: DNA topoisomerase 2-alpha (Homo sapiens) (UniProt P11388); experiment: Inhibition of human DNA topoisomerase 2
EMT6 = experiment: Ratio of cytotoxicity for normally oxygenated mouse EMT6 cells over hypoxic mouse EMT6 cells; format: functional
[3] = molecular target: DNA topoisomerase 2-alpha (Homo sapiens) (UniProt P11388); experiment: Inhibition of strand rejoining activity of human DNA topoisomerase 2 assessed as protein-DNA complex formation at 20 uM by cell-based assay; set-up: scale not given: the % may be the effect or the level left

Sequence of DNA topoisomerase 2-alpha (Homo sapiens) (P11388 whole entry): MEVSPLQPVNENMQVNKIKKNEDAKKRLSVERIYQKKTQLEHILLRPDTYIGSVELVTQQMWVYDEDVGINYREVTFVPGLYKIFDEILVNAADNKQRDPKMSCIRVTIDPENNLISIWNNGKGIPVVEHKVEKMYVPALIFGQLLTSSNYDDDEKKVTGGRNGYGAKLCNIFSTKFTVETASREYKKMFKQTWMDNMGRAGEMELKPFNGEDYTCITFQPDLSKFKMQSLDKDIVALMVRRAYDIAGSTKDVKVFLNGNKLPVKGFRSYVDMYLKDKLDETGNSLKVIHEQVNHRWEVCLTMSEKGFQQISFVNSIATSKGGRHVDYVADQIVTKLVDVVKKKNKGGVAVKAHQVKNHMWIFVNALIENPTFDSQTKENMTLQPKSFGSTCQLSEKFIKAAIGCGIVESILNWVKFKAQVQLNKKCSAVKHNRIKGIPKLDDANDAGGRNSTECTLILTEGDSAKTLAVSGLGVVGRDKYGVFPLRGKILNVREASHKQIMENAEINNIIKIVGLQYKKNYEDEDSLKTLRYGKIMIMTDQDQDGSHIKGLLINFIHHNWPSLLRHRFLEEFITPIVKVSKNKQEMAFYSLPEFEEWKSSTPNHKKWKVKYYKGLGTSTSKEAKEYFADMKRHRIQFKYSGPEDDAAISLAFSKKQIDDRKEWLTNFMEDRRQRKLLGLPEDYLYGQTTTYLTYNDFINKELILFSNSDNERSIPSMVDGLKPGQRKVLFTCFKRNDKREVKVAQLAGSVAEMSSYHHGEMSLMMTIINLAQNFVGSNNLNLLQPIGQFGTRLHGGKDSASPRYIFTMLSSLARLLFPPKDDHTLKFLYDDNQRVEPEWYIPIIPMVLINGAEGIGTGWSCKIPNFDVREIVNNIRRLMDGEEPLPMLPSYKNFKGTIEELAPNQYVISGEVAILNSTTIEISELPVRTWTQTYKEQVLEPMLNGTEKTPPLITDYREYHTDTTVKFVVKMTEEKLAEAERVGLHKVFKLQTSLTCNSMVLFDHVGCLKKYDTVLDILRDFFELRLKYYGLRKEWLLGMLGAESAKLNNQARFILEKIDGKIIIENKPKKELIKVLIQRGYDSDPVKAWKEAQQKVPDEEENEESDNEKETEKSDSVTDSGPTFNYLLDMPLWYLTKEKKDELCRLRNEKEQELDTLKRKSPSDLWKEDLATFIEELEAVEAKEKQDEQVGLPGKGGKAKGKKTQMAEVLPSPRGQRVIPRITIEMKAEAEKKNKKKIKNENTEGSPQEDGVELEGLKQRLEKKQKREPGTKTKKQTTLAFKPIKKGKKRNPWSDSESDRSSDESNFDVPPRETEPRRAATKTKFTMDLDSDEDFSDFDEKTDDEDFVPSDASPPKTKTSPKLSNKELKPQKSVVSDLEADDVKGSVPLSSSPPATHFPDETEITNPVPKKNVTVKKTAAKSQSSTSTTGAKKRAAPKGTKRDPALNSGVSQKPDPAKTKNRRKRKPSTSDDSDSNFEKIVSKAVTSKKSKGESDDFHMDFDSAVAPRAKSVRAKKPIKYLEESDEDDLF

Structure (SMILES)	IC50 (KB) [µM]	Activity [1] [%]	ID50 [2] [µM]	Ratio (EMT6)	Activity [3] [%]
COc1cc([C@@H]2c3cc4c(cc3[C@@H](Nc3ccc(C#N)cc3)[C@H]3COC(=O)[C@H]23)OCO4)cc(OC)c1O	0.6	211			
COc1cc([C@@H]2c3cc4c(cc3[C@@H](O)[C@H]3COC(=O)[C@H]23)OCO4)cc(OC)c1O		0	> 100		
COc1cc([C@@H]2c3cc4c(cc3[C@@H](Nc3cccc(F)c3)[C@H]3COC(=O)[C@H]23)OCO4)cc(OC)c1O		158	50		
COc1cc([C@@H]2c3cc4c(cc3[C@H](O)[C@H]3COC(=O)[C@H]23)OCO4)cc(OC)c1O		1.1	> 100		
COc1cc([C@@H]2c3cc4c(cc3[C@@H](Nc3ccccc3F)[C@H]3COC(=O)[C@H]23)OCO4)cc(OC)c1O		121			
COc1cc([C@@H]2c3cc4c(cc3[C@@H](Nc3cncc5ccccc35)[C@H]3COC(=O)[C@H]23)OCO4)cc(OC)c1O	< 1	123	50		
COc1cc([C@@H]2c3cc4c(cc3[C@@H](O[C@@H]3O[C@@H]5CO[C@@H](C)O[C@H]5[C@H](O)[C@H]3O)[C@H]3COC(=O)[C@H]23)OCO4)cc(OC)c1O [ETOPOSIDE]		100		30	
COC(=O)c1cccc(N[C@@H]2c3cc4c(cc3[C@@H](c3cc(OC)c(O)c(OC)c3)[C@H]3C(=O)OC[C@@H]32)OCO4)c1	2.7	129	50		
COc1cc([C@@H]2c3cc4c(cc3[C@@H](Nc3ccccc3)[C@H]3COC(=O)[C@H]23)OCO4)cc(OC)c1O	0.7	243	25		
COc1cc([C@@H]2c3cc4c(cc3[C@@H](Nc3cc(C(F)(F)F)cc(C(F)(F)F)c3)[C@H]3COC(=O)[C@H]23)OCO4)cc(OC)c1O	3.4	21	> 100		
COC(=O)c1ccc(N[C@@H]2c3cc4c(cc3[C@@H](c3cc(OC)c(O)c(OC)c3)[C@H]3C(=O)OC[C@@H]32)OCO4)cc1O	5.8	129	50		
CCOC(=O)c1ccccc1N[C@@H]1c2cc3c(cc2[C@@H](C2=CC(=O)C(=O)C(OC)=C2)[C@H]2C(=O)OC[C@@H]21)OCO3	7		100		4
COC1=CC([C@@H]2c3cc4c(cc3[C@@H](Nc3ccc(CC#N)cc3)[C@H]3COC(=O)[C@@H]32)OCO4)=CC(=O)C1=O	2		25		41
COc1cc([C@@H]2c3cc4c(cc3[C@@H](Nc3cccc(Br)c3)[C@H]3COC(=O)[C@H]23)OCO4)cc(OC)c1O		62			
COC1=CC([C@@H]2c3cc4c(cc3[C@@H](Nc3ccc(F)cc3)[C@H]3COC(=O)[C@@H]32)OCO4)=CC(=O)C1=O	1.3		25		92
COC1=CC([C@@H]2c3cc4c(cc3[C@@H](Nc3cc(C(F)(F)F)cc(C(F)(F)F)c3)[C@H]3COC(=O)[C@@H]32)OCO4)=CC(=O)C1=O	5.5		> 100		4
COc1cc([C@@H]2c3cc4c(cc3[C@@H](Nc3cc(F)cc(F)c3)[C@H]3COC(=O)[C@H]23)OCO4)cc(OC)c1O		115	50		

Structure (SMILES)	IC50 (KB) [µM]	Activity [1] [%]	ID50 [2] [µM]	Ratio (EMT6)	Activity [3] [%]
CCOC(=O)c1ccc(N[C@@H]2c3cc4c(cc3[C@@H](c3cc(OC)c(O)c(OC)c3)[C@H]3C(=O)OC[C@@H]32)OCO4)cc1	0.84	207	5		
COC(=O)c1cccc(N[C@@H]2c3cc4c(cc3[C@@H](C3=CC(=O)C(=O)C(OC)=C3)[C@H]3C(=O)OC[C@@H]32)OCO4)c1	1.2		100		67
COC1=CC([C@@H]2c3cc4c(cc3[C@@H](Nc3ccc([N+](=O)[O-])cc3)[C@H]3COC(=O)[C@@H]32)OCO4)=CC(=O)C1=O	1.3		10		128
COC1=CC([C@@H]2c3cc4c(cc3[C@@H](Nc3cccc(F)c3)[C@H]3COC(=O)[C@@H]32)OCO4)=CC(=O)C1=O	1.6		100		37
COc1cc([C@@H]2c3cc4c(cc3[C@@H](Nc3cccc([N+](=O)[O-])c3)[C@H]3COC(=O)[C@H]23)OCO4)cc(O)c1O	2		50		75
COC1=CC([C@@H]2c3cc4c(cc3[C@@H](Nc3ccccc3F)[C@H]3COC(=O)[C@@H]32)OCO4)=CC(=O)C1=O	1.2		100		29
COc1cc([C@@H]2c3cc4c(cc3[C@@H](Nc3ccc(F)cc3)[C@H]3COC(=O)[C@H]23)OCO4)cc(OC)c1O	0.2	2.13	5		
COc1cc([C@@H]2c3cc4c(cc3[C@@H](Nc3ccc(C#N)cc3)[C@H]3COC(=O)[C@H]23)OCO4)cc(O)c1O	1.8		25		146
COc1cc([C@@H]2c3cc4c(cc3[C@@H](Nc3ccc(Cl)cc3)[C@H]3COC(=O)[C@H]23)OCO4)cc(OC)c1O		99	50		
COc1cc([C@@H]2c3cc4c(cc3[C@@H](Nc3ccc(F)cc3)[C@H]3COC(=O)[C@H]23)OCO4)cc(O)c1O	1.5		10		117
COc1cc([C@@H]2c3cc4c(cc3[C@@H](Oc3ccc(F)cc3)[C@H]3COC(=O)[C@H]23)OCO4)cc(OC)c1O	0.5	57	> 100		
COC1=CC([C@@H]2c3cc4c(cc3[C@@H](Nc3ccc(C#N)cc3)[C@H]3COC(=O)[C@@H]32)OCO4)=CC(=O)C1=O	> 2		50		18
COc1cc([C@@H]2c3cc4c(cc3[C@@H](Nc3cccc([N+](=O)[O-])c3)[C@H]3COC(=O)[C@H]23)OCO4)cc(OC)c1O	1	230	50		
COC1=CC([C@@H]2c3cc4c(cc3[C@@H](Nc3ccc(C(C)=O)cc3)[C@H]3COC(=O)[C@@H]32)OCO4)=CC(=O)C1=O	1.5		50		69
COc1cc([C@@H]2c3cc4c(cc3[C@@H](Nc3ccc([N+](=O)[O-])cc3)[C@H]3COC(=O)[C@H]23)OCO4)cc(OC)c1O	0.5	323	10		
COC1=CC([C@@H]2c3cc4c(cc3[C@@H](Nc3ccc(C(F)(F)F)cc3)[C@H]3COC(=O)[C@@H]32)OCO4)=CC(=O)C1=O	6.5		25		51
COC1=CC([C@@H]2c3cc4c(cc3[C@@H](Nc3ccccc3)[C@H]3COC(=O)[C@@H]32)OCO4)=CC(=O)C1=O	> 2		25		32
